Patent US4450269A, “Mono-5-substituted-3-chloro-4H-1,2,6-thiadiazin-4-one antifungal agents” (FMC Corporation, priority 1980, dated 1984)
Counter-ions that a name gives are not always drawn.

Tested on: Sclerotinia fructicola
Test: Mycelial growth test
Type: cell-based
Details: SF; for Percent Fungus Growth Inhibition: 72 hours, hydrochloride; for inhibition at 5 ppm / inhibition at 10 ppm / inhibition at 20 ppm / inhibition at 40 ppm: Sclerotinia, 72 h, read-out: Percent Fungus Growth Inhibition
Source text: | SF = Sclerotinia fructicola

Structure (SMILES)	Percent Fungus Growth Inhibition (5 ppm) [%]	Percent Fungus Growth Inhibition (10 ppm) [%]	Percent Fungus Growth Inhibition (20 ppm) [%]	Percent Fungus Growth Inhibition (40 ppm) [%]	inhibition at 5 ppm (5 ppm) [%]	inhibition at 10 ppm (10 ppm) [%]	inhibition at 20 ppm (20 ppm) [%]	inhibition at 40 ppm (40 ppm) [%]
Nc1ccc(Oc2nsnc(Cl)c2=O)cc1 [Compound 27, 5-(4-aminophenoxy)-3-chloro-4H--1,2,6-thiadiazine-4-one hydrochloride]	0	21	28	86				
O=c1c(Cl)nsnc1Oc1ccc([N+](=O)[O-])cc1Cl [Compound 53, 3-chloro-5-(2-chloro-4-nitrophenoxy)-4H--1,2,6-thiadiazin-4-one]					63	89	100	100
CC(=O)Nc1cccc(Oc2nsnc(Cl)c2=O)c1 [Compound 42, 3-[(3-N--acetylamino)-phenoxy]-5-chloro-4H--1,2,6-thiadiazin-4-one]					24	35	56	100
COc1ccc(Oc2nsnc(Cl)c2=O)cc1 [Compound 5, 3-chloro-5-(4-methoxyphenoxy)4H--1,2,6-thiadiazin-4-one]					27	42	67	73
O=c1c(Cl)nsnc1Oc1ccccc1Cl [Compound 14, 3-chloro-5-(2-chlorophenoxy)-4H--1,2,6-thiadiazin-4-one]					47	64	87	100
O=c1c(Cl)nsnc1Oc1ccccc1 [Compound 2, 3-chloro-5-phenoxy-4H--1,2,6-thiadiazin-4-one]					52	67	100	100
CS(=O)(=O)c1ccc(Oc2nsnc(Cl)c2=O)cc1 [Compound 41, 3-chloro-5-[(4-methylsulfonyl)phenoxy]-4H--1,2,6-thiadiazin-4-one]					56	78	100	100
O=C(OCc1ccccc1)Oc1ccc(Oc2nsnc(Cl)c2=O)cc1 [Compound 38, 3-chloro-5-[4-(phenylmethoxycarbonyloxy)phenoxyl]-4H-1,2,6-thiadiazin-4-one]					0	0	0	8
Cc1cccc(C)c1Oc1nsnc(Cl)c1=O [Compound 24, 3-chloro-5-(2,6-dimethylphenoxy)-4H--1,2,6-thiadiazin-4-one]					100	100	100	100
O=c1c(Cl)nsnc1Oc1ccc(Br)cc1 [Compound 15, 3-chloro-5-(4-bromophenoxy)-4H--1,2,6-thiadiazin-4-one]					92	83	83	88
O=c1c(Cl)nsnc1Oc1ccccc1Br [Compound 34, 3-chloro-5-(2-bromophenoxy)-4H-1,2,6,-thiadiazin-4-one]					33	72	100	100
Cc1cc(C)cc(Oc2nsnc(Cl)c2=O)c1 [Compound 25, 3-chloro-5-(3,5-dimethylphenoxy)-4H--1,2,6-thiadiazin-4-one]					82	100	100	100
CCOC(=O)c1ccc(Oc2nsnc(Cl)c2=O)cc1 [Compound 7, 3-chloro-5-(4-ethoxycarbonylphenoxy)-4H--1,2,6-thiadiazin-4-one]					54	100	100	100
Cc1cccc(Oc2nsnc(Cl)c2=O)c1 [Compound 21, 3-chloro-5-(3-methylphenoxy)-4H--1,2,6-thiadiazin-4-one]					100	100	100	100
N#CCc1ccc(Oc2nsnc(Cl)c2=O)cc1 [Compound 46, 3-chloro-5-[(4-cyanomethyl)-phenoxy]4H--1,2,6-thiadiazin-4-one]					19	76	81	100
O=c1c(Cl)nsnc1Oc1cc(Cl)cc(Cl)c1 [Compound 20, 3-chloro-5-(3,5-dichlorophenoxy)-4H--1,2,6-thiadiazin-4-one]					60	73	84	87
O=c1c(Cl)nsnc1Oc1cccc(C(F)(F)F)c1 [Compound 44, 3-chloro-5-[(3-trifluoromethyl)phenoxy]-4H--1,2,6-thiadiazin-4-one]					76	100	100	100
